Laboratory results reported in patent publication US7507717B2 (Xenome Ltd., priority 2002, dated 2009).
Residues, ends and D or L forms follow the SMILES beside them.

Tests used:
[1] = target: T1, human noradrenaline transporter (hNET) (Homo sapiens, UniProt P23975); experiment: cell-based
T1 construct: expressed in transfected cells; host or cells: COS-7 cells (ATCC), transient transfection with metafectene

[2] = target: T1, human noradrenaline transporter (hNET); experiment: biochemical; format: binding; details: for IC50: Av IC50 Displacement of 3H-nisoxetine from hNET

T1 sequence (P23975 whole entry): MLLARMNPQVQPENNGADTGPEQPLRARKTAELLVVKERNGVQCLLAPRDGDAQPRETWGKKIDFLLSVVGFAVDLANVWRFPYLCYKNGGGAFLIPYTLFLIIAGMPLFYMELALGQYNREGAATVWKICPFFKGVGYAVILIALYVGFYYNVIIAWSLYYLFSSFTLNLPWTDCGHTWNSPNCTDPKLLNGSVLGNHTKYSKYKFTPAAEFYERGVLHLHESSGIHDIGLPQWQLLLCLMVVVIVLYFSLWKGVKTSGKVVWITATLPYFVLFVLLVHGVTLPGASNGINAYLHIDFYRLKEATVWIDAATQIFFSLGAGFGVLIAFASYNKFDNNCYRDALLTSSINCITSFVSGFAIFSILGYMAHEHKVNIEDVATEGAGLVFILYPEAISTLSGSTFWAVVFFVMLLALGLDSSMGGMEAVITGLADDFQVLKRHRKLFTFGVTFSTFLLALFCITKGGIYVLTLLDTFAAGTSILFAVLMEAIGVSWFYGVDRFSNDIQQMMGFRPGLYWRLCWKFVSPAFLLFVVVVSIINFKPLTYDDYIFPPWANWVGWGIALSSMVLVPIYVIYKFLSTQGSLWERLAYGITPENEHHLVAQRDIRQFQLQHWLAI

Molecule	IC50 [1] [µM]	IC50 [2] [µM]	Av IC50 Displacement of 3H-nisoxetine from hNET [2]
CC(C)C[C@@H]1NC(=O)[C@H](CCCCN)NC(=O)[C@H](Cc2ccc(O)cc2)NC(=O)CNC(=O)[C@@H]2CSSC[C@H](NC1=O)C(=O)N[C@@H](Cc1c[nH]cn1)C(=O)N1CCC[C@H]1C(=O)N[C@H](C(N)=O)CSSC[C@H](NC(=O)[C@@H](NC(=O)CNC(=O)[C@H](CC(N)=O)NC(=O)[C@@H](N)Cc1c[nH]c3ccccc13)C(C)C)C(=O)N2 [compound 82]	3.16	0.295	
CC(C)C[C@H](NC(=O)[C@H](CC(=O)O)NC(=O)[C@H](CCCCN)NC(=O)[C@@H](N)Cc1c[nH]c2ccccc12)C(=O)N[C@H]1CSSC[C@@H](C(N)=O)NC(=O)[C@@H]2CCCN2C(=O)[C@H](Cc2c[nH]cn2)NC(=O)[C@@H]2CSSC[C@H](NC1=O)C(=O)NCC(=O)N[C@@H](Cc1ccc(O)cc1)C(=O)N[C@@H](CCCCN)C(=O)N[C@@H](CC(C)C)C(=O)N2 [compound 85] (HELM PEPTIDE1{W.K.D.L.C.C.G.Y.K.L.C.H.P.C.[am]}$PEPTIDE1,PEPTIDE1,5:R3-14:R3|PEPTIDE1,PEPTIDE1,6:R3-11:R3$$$V2.0)	0.0891	0.309	
CC(C)C[C@@H]1NC(=O)[C@H](CCCCN)NC(=O)[C@H](Cc2ccc(O)cc2)NC(=O)CNC(=O)[C@@H]2CSSC[C@H](NC1=O)C(=O)N[C@@H](CCCNC(=N)N)C(=O)N1CCC[C@H]1C(=O)N[C@H](C(N)=O)CSSC[C@H](NC(=O)[C@@H](NC(=O)CNC(=O)[C@H](CC(N)=O)NC(=O)[C@@H](N)Cc1ccc(O)cc1)C(C)C)C(=O)N2 [compound 89]	0.112	0.339	
CC(C)C[C@@H]1NC(=O)[C@H](CCCCN)NC(=O)[C@H](Cc2ccc(O)cc2)NC(=O)CNC(=O)[C@@H]2CSSC[C@H](NC1=O)C(=O)N[C@@H](Cc1c[nH]c3ccccc13)C(=O)N1CCC[C@H]1C(=O)N[C@H](C(N)=O)CSSC[C@H](NC(=O)[C@@H](NC(=O)[C@H](CC(=O)O)NC(=O)[C@H](CCCCN)NC(=O)[C@@H](N)Cc1c[nH]c3ccccc13)C(C)C)C(=O)N2 [compound 92] (HELM PEPTIDE1{W.K.D.V.C.C.G.Y.K.L.C.W.P.C.[am]}$PEPTIDE1,PEPTIDE1,5:R3-14:R3|PEPTIDE1,PEPTIDE1,6:R3-11:R3$$$V2.0)	0.0363	0.407	
CC(C)C[C@@H]1NC(=O)[C@H](CCCCN)NC(=O)[C@H](Cc2ccc(O)cc2)NC(=O)CNC(=O)[C@@H]2CSSC[C@H](NC1=O)C(=O)N[C@@H](Cc1c[nH]cn1)C(=O)N1CCC[C@H]1C(=O)N[C@H](C(N)=O)CSSC[C@H](NC(=O)[C@@H](NC(=O)CNC(=O)[C@@H](N)CC(N)=O)C(C)C)C(=O)N2 [compound 146]	0.741	3.09	
CC(C)C[C@@H]1NC(=O)[C@H](CCCCN)NC(=O)[C@H](Cc2ccc(O)cc2)NC(=O)CNC(=O)[C@@H]2CSSC[C@H](NC1=O)C(=O)N[C@H](C(N)=O)CSSC[C@H](NC(=O)[C@@H](N)C(C)C)C(=O)N2 [compound 148] (HELM PEPTIDE1{V.C.C.G.Y.K.L.C.C.[am]}$PEPTIDE1,PEPTIDE1,2:R3-9:R3|PEPTIDE1,PEPTIDE1,3:R3-8:R3$$$V2.0)	0.347	3.16	
YNGVCCGYKLCRPC [compound 207]			−2.00
YNGVCCGYWLCHPC [compound 211]			−2.00
YNGVCCGYYLCHPC [compound 212]			−2.00
